Laboratory results from PubChem BioAssay AID212 (DTP/NCI, 2004).
Several values for one entry are separate records, joined by “and”; a condition that tells them apart may be missing. Equal entries are not always repeated. Results filed as inconclusive are left out.

System: BDF1 mice, colon carcinoma 38 sc, T/C %
Test: NCI In Vivo Anticancer Drug Screen. Data for tumor model Colon Carcinoma 38 (subcutaneous) in B6D2F1 (BDF1) mice
Summary of the method: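 Compound antitumor activity was assessed in mice carrying transplantable tumors. Survival or tumor size was recorded, and each value is the treated-group measurement divided by that of the vehicle-treated control group.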

O=C1C(NCCO)=C(N2CC2)C(=O)C(NCCO)=C1N1CC1
T/C (endpoint: median tumor weight (est.), dose: 0.12 mg/kg/injection, schedule: Q07DX002 (ip), vehicle: saline, higher = larger tumour): 83 % of control and 91 % of control | T/C (endpoint: median tumor weight (est.), dose: 0.25 mg/kg/injection, schedule: Q07DX002 (ip), vehicle: saline, higher = larger tumour): 92 % of control

Clc1ccc(C(c2ccccc2Cl)C(Cl)Cl)cc1 (centres undefined)
T/C (endpoint: median tumor weight (est.), dose: 25.0 mg/kg/injection, schedule: Q07DX003 (ip), vehicle: saline with Tween-80, higher = larger tumour): 39 % of control | T/C (endpoint: median tumor weight (est.), dose: 50.0 mg/kg/injection, schedule: Q07DX003 (ip), vehicle: saline with Tween-80, higher = larger tumour): 59 % of control | T/C (endpoint: median tumor weight (est.), dose: 100.0 mg/kg/injection, schedule: Q07DX003 (ip), vehicle: saline with Tween-80, higher = larger tumour): 80 % of control | T/C (endpoint: median tumor weight (est.), dose: 200.0 mg/kg/injection, schedule: Q07DX003 (ip), vehicle: saline with Tween-80, higher = larger tumour): 63 % of control | T/C (endpoint: median tumor weight (est.), dose: 400.0 mg/kg/injection, schedule: Q07DX003 (ip), vehicle: saline with Tween-80, higher = larger tumour): 95 % of control

CCOC(=O)C(CC(C)C)NC(=O)C(Cc1ccc(N(CCCl)CCCl)cc1)NC(C)=O (centres undefined)
T/C (endpoint: median tumor weight (est.), dose: 32.0 mg/kg/injection, schedule: Q07DX002 (ip), vehicle: saline with Tween-80, higher = larger tumour): 53 % of control | T/C (endpoint: median tumor weight (est.), dose: 32.0 mg/kg/injection, schedule: Q07DX003 (ip), vehicle: saline with Tween-80, higher = larger tumour): 76 % of control | T/C (endpoint: median tumor weight (est.), dose: 64.0 mg/kg/injection, schedule: Q07DX002 (ip), vehicle: saline with Tween-80, higher = larger tumour): 36 % of control | T/C (endpoint: median tumor weight (est.), dose: 64.0 mg/kg/injection, schedule: Q07DX003 (ip), vehicle: saline with Tween-80, higher = larger tumour): 66 % of control | T/C (endpoint: median tumor weight (est.), dose: 128.0 mg/kg/injection, schedule: Q07DX003 (ip), vehicle: saline with Tween-80, higher = larger tumour): 82 % of control

C=C1CC2(OC1=O)C(=O)N(C)c1ccc(I)cc12 (centres undefined)
T/C (endpoint: median tumor weight (est.), dose: 1.81 mg/kg/injection, schedule: Q07DX002 (ip), vehicle: suspension in saline, higher = larger tumour): 69 % of control | T/C (endpoint: median tumor weight (est.), dose: 3.62 mg/kg/injection, schedule: Q07DX002 (ip), vehicle: suspension in saline, higher = larger tumour): 114 % of control | T/C (endpoint: median tumor weight (est.), dose: 7.25 mg/kg/injection, schedule: Q07DX002 (ip), vehicle: suspension in saline, higher = larger tumour): 120 % of control | T/C (endpoint: median tumor weight (est.), dose: 14.5 mg/kg/injection, schedule: Q07DX002 (ip), vehicle: suspension in saline, higher = larger tumour): 63 % of control | T/C (endpoint: median tumor weight (est.), dose: 25.0 mg/kg/injection, schedule: Q07DX002 (ip), vehicle: saline, higher = larger tumour): 93 % of control | T/C (endpoint: median tumor weight (est.), dose: 29.0 mg/kg/injection, schedule: Q07DX002 (ip), vehicle: suspension in saline, higher = larger tumour): 107 % of control | T/C (endpoint: median tumor weight (est.), dose: 58.0 mg/kg/injection, schedule: Q07DX002 (ip), vehicle: suspension in saline, higher = larger tumour): 111 % of control | T/C (endpoint: median tumor weight (est.), dose: 200.0 mg/kg/injection, schedule: Q07DX002 (ip), vehicle: saline, higher = larger tumour): 89 % of control | T/C (endpoint: median tumor weight (est.), dose: 400.0 mg/kg/injection, schedule: Q07DX002 (ip), vehicle: saline, higher = larger tumour): 108 % of control and 121 % of control

C[C@]12CC[C@@H]3c4ccc(OC(=O)Cc5ccc(N(CCCl)CCCl)cc5)cc4CC[C@H]3[C@@H]1CC[C@@H]2OC(=O)Cc1ccc(N(CCCl)CCCl)cc1
T/C (endpoint: median tumor weight (est.), dose: 50.0 mg/kg/injection, schedule: Q07DX002 (ip), vehicle: saline with Tween-80, higher = larger tumour): 185 % of control | T/C (endpoint: median tumor weight (est.), dose: 100.0 mg/kg/injection, schedule: Q07DX002 (ip), vehicle: saline with Tween-80, higher = larger tumour): 176 % of control | T/C (endpoint: median tumor weight (est.), dose: 200.0 mg/kg/injection, schedule: Q07DX002 (ip), vehicle: saline with Tween-80, higher = larger tumour): 173 % of control and 201 % of control | T/C (endpoint: median tumor weight (est.), dose: 400.0 mg/kg/injection, schedule: Q07DX002 (ip), vehicle: saline with Tween-80, higher = larger tumour): 256 % of control | T/C (endpoint: median tumor weight (est.), dose: 800.0 mg/kg/injection, schedule: Q07DX002 (ip), vehicle: saline with Tween-80, higher = larger tumour): 195 % of control

CCCCCCCCCCCCCCCCCC(=O)OCC(=O)OCC(=O)[C@]1(O)Cc2c(O)c3c(c(O)c2[C@@H](OC2CC(N)C(O)C(C)O2)C1)C(=O)c1c(OC)cccc1C3=O (some centres undefined)
T/C (endpoint: median survival time, dose: 11.5 mg/kg/injection, schedule: Q07DX002 (iv), vehicle: saline, higher = longer survival): 111 % of control | T/C (endpoint: median tumor weight (est.), dose: 1.69 mg/kg/injection, schedule: Q07DX002 (ip), vehicle: saline with Tween-80, higher = larger tumour): 70 % of control | T/C (endpoint: median tumor weight (est.), dose: 3.38 mg/kg/injection, schedule: Q07DX002 (ip), vehicle: saline with Tween-80, higher = larger tumour): 93 % of control | T/C (endpoint: median tumor weight (est.), dose: 6.75 mg/kg/injection, schedule: Q07DX002 (ip), vehicle: saline with Tween-80, higher = larger tumour): 79 % of control and 89 % of control and 97 % of control | T/C (endpoint: median tumor weight (est.), dose: 27.0 mg/kg/injection, schedule: Q07DX002 (ip), vehicle: saline with Tween-80, higher = larger tumour): 18 % of control and 37 % of control

CC(C)NCC(O)COc1cccc2ccccc12 (centres undefined)
T/C (endpoint: median tumor weight (est.), dose: 4.0 mg/kg/injection, schedule: Q07DX002 (ip), vehicle: Klucel (hydroxypropylcellulose) (HPC), higher = larger tumour): 122 % of control | T/C (endpoint: median tumor weight (est.), dose: 8.0 mg/kg/injection, schedule: Q07DX002 (ip), vehicle: Klucel (hydroxypropylcellulose) (HPC), higher = larger tumour): 100 % of control | T/C (endpoint: median tumor weight (est.), dose: 64.0 mg/kg/injection, schedule: Q07DX002 (ip), vehicle: Klucel (hydroxypropylcellulose) (HPC), higher = larger tumour): 88 % of control
